# Entries after “also recorded” stand apart in the source; their conditions may differ. Read-outs that look alike come from different tables or passages of the source.
# How the values were obtained:
# T cells [1] = assay: Flow cytometry staining of Day 6 cells for expression of the transduced TCR (PRAME dextramer); assay type: cell-based, human
# Protocol: Flow cytometry staining was performed on Day 6 cells to assess the expression of TCR.
# T cells [2] = tested on: T cells
# Protocol: On Day 3, cells were fed with media containing IL-7 and IL-15. On Day 6, cells were harvested and about half of cells were cryopreserved. The other half of cells were transferred to G-Rex 6-well plate, to which 10 ml of fresh medium was added without RA (Group 1) or with RA (100 nM/ml) (Group 2). Some Day 6 cells were analysed by flow cytometry to assess transduction efficiency. On Day 8, remaining cells were harvested and cryopreserved.
# [3] = Day 6 or Day 8 cells untreated or treated with RA, data not shown
# [4] = Day 6 or Day 8 cells, Wilcoxon test
# [5] = Day 6 or Day 8 cells, data not shown
# [6] = RA-treated Day 6 T cell products
# [7] = RA-treated Day 8 T cell products
smiles,measurement,setting,value
"CC1=C(/C=C/C(C)=C/C=C/C(C)=C/C(=O)O)C(C)(C)CCC1 [RA, all-trans-retinoic acid]","% CD3+ of live lymphocytes, with vs without RA",T cells [1]; Donor 1,comparable
same,"% CD8+ of live CD3+ cell, with vs without RA",T cells [1]; Donor 1,comparable
same,% of CD8+ cells expressing the transduced TCR,"T cells [1]; Donor 1, with RA treatment (ATRA 100 nM/ml)",32.9%
same,"% CD3+ of live lymphocytes, with vs without RA",T cells [1]; Donor 2,comparable
same,"% CD8+ of live CD3+ cell, with vs without RA",T cells [1]; Donor 2,comparable
same,% of CD8+ cells expressing the transduced TCR,"T cells [1]; Donor 2, with RA treatment (ATRA 100 nM/ml)",13.3%
same,CD38 expression on RA-treated CD8+ T cells,T cells [2],expressed on all RA-treated CD8+ T cells
same,RA-treated CD103+ cells that also express CCR9,T cells [2],almost all
same,effect of RA treatment on CD45RA+ CD3+CD8+ T cells,T cells [2]; 1-way ANOVA on 3 data sets,significantly decreases
same,effect of RA treatment on transitional CD3+CD8+ T cells,T cells [2]; 1-way ANOVA on 3 data sets,significantly decreases
same,effect of RA treatment on CD45RO+ T cells,"T cells [2]; 1-way ANOVA on 3 data sets, CD3+CD8+ T cells",significantly increases
same,"CD25+ cells, with vs without RA treatment","T cells [2]; Day 6 or Day 8 T cell products, Paired t-test",does not impact; also recorded: no significant difference
same,"CD73, untreated or treated with RA",T cells [2]; Day 6 or Day 8 cells,no difference was observed between Day 6 or Day 8 cells
same,"CD95, untreated or treated with RA",T cells [2]; Day 6 or Day 8 cells,no difference was observed between Day 6 or Day 8 cells
same,CD73 positive cells,T cells [2]; [3],"untreated or treated with RA (<5% positive, data not shown)"
same,CD95 positive cells,T cells [2]; [3],"untreated or treated with RA (>90% positive, data not shown)"
same,"CD27+ cells, treated vs untreated",T cells [2]; [4],no significant difference; also recorded: No difference was seen between treated and untreated and
same,"CD28+ cells, treated vs untreated",T cells [2]; [4],no significant difference; also recorded: No difference was seen between treated and untreated and
same,"CD39+ cells, untreated or treated with RA",T cells [2]; [4],no significant difference; also recorded: no difference was observed between Day 6 or Day 8 cells
same,"CXCR4+ cells, untreated or treated with RA",T cells [2]; [4],no significant difference; also recorded: no difference was observed between Day 6 or Day 8 cells
same,"HLA-DR+ cells, untreated or treated with RA",T cells [2]; [4],no significant difference; also recorded: no difference was observed between Day 6 or Day 8 cells
same,"CD56 (NK-related marker), treated vs untreated",T cells [2]; [5],No difference was seen between treated and untreated and
same,"CD94 (NK-related marker), treated vs untreated",T cells [2]; [5],No difference was seen between treated and untreated and
same,"CD314 (NK-related marker), treated vs untreated",T cells [2]; [5],No difference was seen between treated and untreated and
same,effect of RA treatment on Tcm,T cells [2]; FIG. 10,increases
same,effect of RA treatment on Tem,T cells [2]; FIG. 10,little effect
same,effect of RA treatment on Temra,T cells [2]; FIG. 10,little effect
same,effect of RA treatment on naïve/Tscm,T cells [2]; FIG. 10,significantly decreases
same,"CD103 expression, with vs without RA treatment",T cells [2]; FIG. 19B,does not significantly affect
same,CD45RO+ T cells,T cells [2]; [6],80.3%
same,CD62L+ T cells,T cells [2]; [6],7.74%
same,naïve/Tscm (CD45RA+CD197+),T cells [2]; [6],6.07%
same,CD45RO+ T cells,T cells [2]; [7],84.5%
same,CD62L+ T cells vs without RA treatment,T cells [2]; [7],significantly fewer
same,naïve/Tscm (CD45RA+CD197+),T cells [2]; [7],4.25%
same,"CCR9+ cells, with vs without RA treatment","T cells [2]; Wilcoxon test, p=0.0313",significantly increases
same,"CD25+ cells, Day 8 RA-treated vs Day 6 T cell products without RA treatment","T cells [2]; Wilcoxon test, p=0.0313",significantly fewer
same,"CD38+ cells, with vs without RA treatment","T cells [2]; Wilcoxon test, p=0.0313",significantly increases
same,CD38 MFI (Mean Fluorescence Intensity) in CD8+ T cells vs without RA treatment,"T cells [2]; Wilcoxon test, p=0.0313",higher
same,"CD49a+ cells, with vs without RA treatment","T cells [2]; Wilcoxon test, p=0.0313",significantly increases
same,"CD69+ cells, with vs without RA treatment","T cells [2]; Wilcoxon test, p=0.0313",significantly increases
same,"ICOS+ cells, with vs without RA treatment","T cells [2]; Wilcoxon test, p=0.0313",lower levels; also recorded: significantly decreases
same,"α4β7+ cells, with vs without RA treatment","T cells [2]; Wilcoxon test, p=0.0313, α4+ and β7+ detected separately",significantly increases
same,CD197+ cells,T cells [2]; between Day 6 and Day 8 T cell products with or without RA treatment,no significant difference
same,"CCR6, effect of RA treatment",T cells [2]; data not shown,to low frequency and no differences (data not shown)
same,expression of CCR9 on DEX+CD3+CD8+α4β7+ cells vs without RA treatment,T cells [2]; p=0.0313,significantly higher
same,α4β7 expression in CD3+CD8+DEX+ cells vs without RA treatment,T cells [2]; p=0.0313,significantly higher
same,α4β7+ cells present in CD3+CD8+DEX+ cells,"T cells [2]; with RA treatment, CD49d (α4) and β7",54.6%

# — patent publication US20210017492A1, “USE OF RETINOIC ACID IN T-CELL MANUFACTURING” (Immatics US, Inc., priority 2019, published 2021)
